From PMC8881573, “Inhibition of SRP-dependent protein secretion by the bacterial alarmone (p)ppGpp” (Nature Communications, 2022)

Tests used:
[1] = molecular target: T1, SRP/FtsY (Escherichia coli, UniProt P0AGD7+P10121); assay: Floatation analysis of co-translational membrane targeting of RNCs to SecYEG-proteoliposomes; assay type: biochemical, E. coli; conditions: 50 µM final concentration, 10 µM GTP
T1 construct: (Ec)Ffh (full-length) was concentrated on a 10 kDa centrifugal filter; (Ec)FtsY (full-length) was re-buffered in HT buffer; His-tag; made in house; host or cells: E. coli
Method: For in vitro synthesizing FtsQ- and LepB-RNCs, the T7-dependent expression vectors pKSM-FtsQ and pKSM-LepB were used[37],[79]. In brief, the first 102 amino acids of LepB, and the first 120 amino acids of FtsQ were fused to the SecM stalling sequence and cloned into the pET19b vector. In vitro synthesis was performed in a coupled transcription/translation system as described for YohP. After in vitro synthesis, the RNCs were incubated with INVs (1 µL), liposomes (2 µL), or SecYEG-proteoliposomes (2 µL; 100 ng SecYEG µL^−1) in floatation buffer (50 mM triethanolamine acetate, pH 8.0; 10 µM GTP, 10 mM magnesium acetate, 70 mM potassium acetate; 250 mM sucrose and 1 mM DTT) for 15 min at 25 °C. When indicated, SRP/FtsY (20 ng µL^−1 each) and ppGpp or pppGpp (50 µM final concentration) was present during incubation. Membrane binding of RNCs was assayed by floatation analyses. The reaction mixture was adjusted to 1.6 M sucrose (final volume 100 µL) and overlaid with 200 µL of 1.25 M sucrose and 100 µL 0.25 M sucrose, each prepared in floatation buffer. Following centrifugation in a TLA 100.2 rotor (Beckmann-Coulter) at […] for 90 min, the upper 200 µL of the gradient, containing the membrane fraction (MF) were withdrawn and precipitated with 10% (w/v) TCA (final concentration). The pelleted (non-bound soluble fraction, SF) RNCs were resuspended in the remaining 200 µL of the gradient and TCA precipitated. Samples were subsequently analyzed by 15% SDS-PAGE and autoradiography. RNC binding to membranes was quantified by using the ImageQuant (GE Healthcare, München, Germany) software. The experiments were performed at least three times as independent experiments and representative images are shown. Mean values and SEM values were determined by using either Excel (Microsoft Corp.) or GraphPad Prism (GraphPad Prism Corp. San Diego).

[2] = molecular target: GTPase RbgA; parameters: method as in PMID 30366986; conditions: read-out: inhibitor constant Ki; cited from earlier work
[3] = molecular target: T1, SRP/FtsY; assay: YohP insertion into SecYEG-proteoliposomes with purified SRP/FtsY, proteinase K resistance; assay type: biochemical, E. coli; conditions: added together with SRP/FtsY (20 ng µL−1 each), 10 µM GTP
Method: For protein transport assay, YohP cloned in pET19b was synthesized in vitro using a purified transcription/translation system composed of cytosolic translation factors (CTF) and high salt-washed ribosomes[35],[36]. The ^35S-Methionine/^35S-Cysteine labeling mix was obtained from Perkin Elmer (Wiesbaden, Germany). INVs of E. coli cells were prepared by sucrose gradient centrifugation of cell extracts as described[76] and resuspended in INV buffer (50 mM triethanolamine acetate, pH 7.5, 200 mM sucrose, 1 mM DTT). […] The supernatant containing YohP was then incubated with INV, liposomes or SecYEG-proteoliposomes for 10 min at 37 °C in the presence of 10 µM GTP. […] Next, the samples were denatured at 56 °C for 10 min in 35 μL of TCA loading dye (prepared by mixing one part of solution III (1 M dithiothreitol) with 4 parts of solution II (6.33% (w/v) SDS, 0.083 M Tris, 30% (v/v) glycerol and 0.053% (w/v) bromophenol blue) and 5 parts of solution I (0.2 M Tris, 0.02 M EDTA pH 8)) and analyzed after separation on a modified SDS-PAGE[35] by phosphor imaging. For quantification of YohP insertion, autoradiography samples were analyzed by using the ImageQuant (GE Healthcare) software. […] Mean values and SEM values were determined by using either Excel (Microsoft Corp.) or GraphPad Prism (GraphPad Prism Corp. San Diego). […]

T1 sequence (P0AGD7 whole entry): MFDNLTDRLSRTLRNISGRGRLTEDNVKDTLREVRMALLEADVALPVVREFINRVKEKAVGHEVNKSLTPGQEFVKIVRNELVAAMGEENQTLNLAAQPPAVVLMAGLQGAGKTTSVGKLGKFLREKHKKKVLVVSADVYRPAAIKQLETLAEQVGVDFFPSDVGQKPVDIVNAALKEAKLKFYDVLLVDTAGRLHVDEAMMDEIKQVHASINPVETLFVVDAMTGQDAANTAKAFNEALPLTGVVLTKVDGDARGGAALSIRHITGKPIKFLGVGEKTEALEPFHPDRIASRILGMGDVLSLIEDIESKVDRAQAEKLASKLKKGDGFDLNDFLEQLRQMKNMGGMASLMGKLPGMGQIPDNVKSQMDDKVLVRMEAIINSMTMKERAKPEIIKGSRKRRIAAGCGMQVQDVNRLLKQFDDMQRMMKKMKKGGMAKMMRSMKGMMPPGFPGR
T1 sequence (P10121 whole entry): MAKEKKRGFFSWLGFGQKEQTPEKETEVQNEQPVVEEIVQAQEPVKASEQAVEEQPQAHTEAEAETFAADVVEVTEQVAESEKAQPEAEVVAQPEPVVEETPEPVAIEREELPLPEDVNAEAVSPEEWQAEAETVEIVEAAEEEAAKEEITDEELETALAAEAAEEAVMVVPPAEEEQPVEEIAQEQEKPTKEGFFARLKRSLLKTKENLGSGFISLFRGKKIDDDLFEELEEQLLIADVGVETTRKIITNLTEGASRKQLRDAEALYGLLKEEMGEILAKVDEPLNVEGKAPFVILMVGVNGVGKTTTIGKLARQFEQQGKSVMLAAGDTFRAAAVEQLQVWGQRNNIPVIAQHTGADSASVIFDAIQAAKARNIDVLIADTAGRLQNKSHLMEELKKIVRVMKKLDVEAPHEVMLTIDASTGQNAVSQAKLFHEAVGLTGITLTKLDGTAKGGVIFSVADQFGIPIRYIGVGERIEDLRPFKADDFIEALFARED

Structure (SMILES)	membrane targeting of FtsQ-RNCs [1]	membrane targeting of LepB-RNCs [1]	Ki [2] [µM]	YohP insertion into SecYEG proteoliposomes [3]
Nc1nc2c(ncn2[C@@H]2O[C@H](COP(=O)(O)OP(=O)(O)O)[C@@H](OP(=O)(O)OP(=O)(O)O)[C@H]2O)c(=O)[nH]1 [ppGpp]	completely blocked	completely blocked	300	reduced YohP insertion into SecYEG proteoliposomes drastically
Nc1nc2c(ncn2[C@@H]2O[C@H](COP(=O)(O)OP(=O)(O)OP(=O)(O)O)[C@@H](OP(=O)(O)OP(=O)(O)O)[C@H]2O)c(=O)[nH]1 [pppGpp]	completely blocked	completely blocked	500	reduced YohP insertion into SecYEG proteoliposomes drastically
